Source: ChEMBL document CHEMBL1201862, “PubChem BioAssay data set” (2004)
Calls of active or inactive are those of the source.

How the values were obtained:
[1] = cells
[2] = target: T1, Oxysterols receptor LXR-beta (Homo sapiens, UniProt P55055); format: functional, cell-based;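 note: Cell-based luminescence dose-response assay of agonist activity at LXR, run as a confirmatory counterscreen to a daf-12 agonist screen; HEK293 cells with Gal4-LXR fusion and GAL4-driven luciferase reporter; agonist potency from rising luciferase signal of a Gal4-LXR reporter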
T1 sequence (P55055 whole entry): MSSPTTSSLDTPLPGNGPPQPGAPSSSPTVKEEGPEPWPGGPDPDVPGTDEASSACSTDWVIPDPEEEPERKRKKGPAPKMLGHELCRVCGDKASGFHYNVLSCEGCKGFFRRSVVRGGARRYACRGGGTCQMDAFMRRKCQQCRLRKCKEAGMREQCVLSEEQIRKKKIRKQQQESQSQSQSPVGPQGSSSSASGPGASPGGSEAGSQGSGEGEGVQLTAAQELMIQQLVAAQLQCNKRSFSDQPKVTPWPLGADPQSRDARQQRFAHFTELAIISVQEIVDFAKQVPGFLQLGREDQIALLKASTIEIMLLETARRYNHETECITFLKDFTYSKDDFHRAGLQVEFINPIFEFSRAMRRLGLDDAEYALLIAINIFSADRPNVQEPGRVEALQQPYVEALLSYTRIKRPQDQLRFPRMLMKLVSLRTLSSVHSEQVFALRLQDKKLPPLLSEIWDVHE

[3] = target: T2, Ubiquitin carboxyl-terminal hydrolase BAP1 (Homo sapiens, UniProt Q92560); assay: BAP1 deubiquitinase inhibitors, dose response, biochemical (AID 714); format: functional
T2 sequence (Q92560 whole entry): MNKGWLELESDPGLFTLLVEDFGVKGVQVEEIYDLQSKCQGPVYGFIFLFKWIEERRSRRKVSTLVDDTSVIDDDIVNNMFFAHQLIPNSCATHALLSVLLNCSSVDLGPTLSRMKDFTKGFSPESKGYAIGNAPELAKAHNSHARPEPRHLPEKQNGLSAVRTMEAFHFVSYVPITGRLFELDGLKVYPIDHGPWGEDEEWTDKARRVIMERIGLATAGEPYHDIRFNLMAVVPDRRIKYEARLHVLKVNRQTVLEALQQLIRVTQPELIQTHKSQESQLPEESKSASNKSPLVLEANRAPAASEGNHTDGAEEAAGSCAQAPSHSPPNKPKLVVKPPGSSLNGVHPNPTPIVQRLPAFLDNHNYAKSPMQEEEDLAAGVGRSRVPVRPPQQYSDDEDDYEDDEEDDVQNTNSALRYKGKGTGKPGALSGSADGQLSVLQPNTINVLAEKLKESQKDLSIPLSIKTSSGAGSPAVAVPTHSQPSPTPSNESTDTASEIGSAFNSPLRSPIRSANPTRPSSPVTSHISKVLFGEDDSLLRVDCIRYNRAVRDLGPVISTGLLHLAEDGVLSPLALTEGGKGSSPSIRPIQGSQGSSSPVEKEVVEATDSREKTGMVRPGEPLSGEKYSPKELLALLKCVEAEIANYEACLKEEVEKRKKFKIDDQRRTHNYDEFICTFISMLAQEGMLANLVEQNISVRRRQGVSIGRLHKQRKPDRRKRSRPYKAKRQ

[4] = ZM109 Env clade C HIV-1 fusion inhibitors, dose response, HeLa effector, CEM target cells, luciferase, cherry-pick (AID 652058); format: functional, cell-based
[5] = target: T3, Heat shock factor protein 1 (Mus musculus, UniProt P38532); assay: inhibition of MG132-induced HSE-luciferase signal, confirmation, cell-based, NIH3T3, luminescence, dose retest (AID 2382); format: functional;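 note: NIH3T3 fibroblasts with HSF1-driven luciferase reporter stressed by proteasome inhibitor MG132; luminescence from HSF1-driven luciferase expression after 8 hours of MG132 stress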
T3 sequence (P38532 whole entry): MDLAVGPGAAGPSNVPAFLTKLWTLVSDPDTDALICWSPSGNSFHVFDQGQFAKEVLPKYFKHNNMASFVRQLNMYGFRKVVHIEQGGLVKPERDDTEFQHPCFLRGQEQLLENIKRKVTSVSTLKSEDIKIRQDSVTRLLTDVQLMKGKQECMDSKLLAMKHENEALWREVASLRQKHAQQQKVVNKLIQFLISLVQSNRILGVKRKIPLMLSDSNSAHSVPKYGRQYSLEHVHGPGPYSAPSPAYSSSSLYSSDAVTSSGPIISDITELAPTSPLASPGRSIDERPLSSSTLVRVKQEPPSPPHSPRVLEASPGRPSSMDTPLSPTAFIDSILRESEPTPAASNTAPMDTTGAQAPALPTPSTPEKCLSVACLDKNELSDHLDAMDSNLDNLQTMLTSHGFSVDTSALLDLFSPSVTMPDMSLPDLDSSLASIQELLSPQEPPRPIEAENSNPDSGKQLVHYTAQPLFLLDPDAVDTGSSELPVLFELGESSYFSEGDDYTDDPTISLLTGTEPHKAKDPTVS

[6] = off-target signal loss in HeLa-CEM21 co-culture – HeLa F-luc CTL cells, cherry-picked, counter-screen for HIV-1 Env fusion inhibitor project, dose response (AID 652040); format: functional, cell-based;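 note: potency for signal decrease marking cytotoxic or nonspecific inhibition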
[7] = inhibitors of HIV Env-driven cell fusion, dose response, cherry-pick (AID 652057); format: functional, cell-based
[8] = target: T4, Tyrosine-protein phosphatase non-receptor type 7 (Homo sapiens, UniProt P35236); assay: inhibitors of human HePTP phosphatase, […], biochemical, absorbance, leukemia target (AID 521); format: functional
T4 sequence (P35236 whole entry): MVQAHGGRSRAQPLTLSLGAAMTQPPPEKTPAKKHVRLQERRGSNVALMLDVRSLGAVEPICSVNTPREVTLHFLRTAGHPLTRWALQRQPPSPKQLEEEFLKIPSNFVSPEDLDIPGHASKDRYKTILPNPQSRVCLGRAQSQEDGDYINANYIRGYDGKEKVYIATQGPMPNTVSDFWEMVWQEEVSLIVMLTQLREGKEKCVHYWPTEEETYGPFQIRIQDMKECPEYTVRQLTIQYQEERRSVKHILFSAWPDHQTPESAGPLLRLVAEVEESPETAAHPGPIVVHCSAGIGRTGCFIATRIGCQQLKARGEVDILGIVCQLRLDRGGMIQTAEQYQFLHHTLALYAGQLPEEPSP

[9] = inhibitors of clade B AD8 Env fusion, dose response, cell-based, cherry-pick (AID 652062); format: functional;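 note: luciferase signal from cell-cell fusion driven by HIV-1 clade B AD8 Env; potency is for inhibitors of fusion seen as a drop in luminescence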
[10] = target: T5, Estrogen receptor beta (Homo sapiens, UniProt Q92731); assay: ERβ–SRC-3 coactivator interaction inhibitors, confirmation, orthogonal assay, biochemical, ELISA, streptavidin-HRP readout (AID 1060)
T5 sequence (Q92731 whole entry, the tested form may be a part): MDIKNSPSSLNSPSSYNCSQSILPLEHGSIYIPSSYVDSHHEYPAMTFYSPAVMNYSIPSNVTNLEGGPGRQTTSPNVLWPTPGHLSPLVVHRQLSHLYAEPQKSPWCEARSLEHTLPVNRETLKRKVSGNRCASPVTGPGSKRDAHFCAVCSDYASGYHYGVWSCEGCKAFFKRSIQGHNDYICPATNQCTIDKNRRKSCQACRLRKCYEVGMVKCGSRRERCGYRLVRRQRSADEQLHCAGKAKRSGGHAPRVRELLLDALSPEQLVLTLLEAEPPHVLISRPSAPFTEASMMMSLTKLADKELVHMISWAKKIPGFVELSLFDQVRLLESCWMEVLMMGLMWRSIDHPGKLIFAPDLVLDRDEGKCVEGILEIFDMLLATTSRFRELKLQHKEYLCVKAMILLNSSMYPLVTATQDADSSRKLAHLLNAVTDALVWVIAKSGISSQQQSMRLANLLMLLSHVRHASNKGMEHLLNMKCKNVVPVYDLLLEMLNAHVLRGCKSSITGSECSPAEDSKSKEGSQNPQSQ

[11] = target: T6, Carboxy-terminal domain RNA polymerase II polypeptide A small phosphatase 1 (Homo sapiens, UniProt Q9GZU7); assay: inhibitors of CTDSP1, concentration-response testing, biochemical assay, absorbance-based, actives from ultra-high-throughput screening (AID 540297); format: functional
T6 sequence (Q9GZU7 whole entry): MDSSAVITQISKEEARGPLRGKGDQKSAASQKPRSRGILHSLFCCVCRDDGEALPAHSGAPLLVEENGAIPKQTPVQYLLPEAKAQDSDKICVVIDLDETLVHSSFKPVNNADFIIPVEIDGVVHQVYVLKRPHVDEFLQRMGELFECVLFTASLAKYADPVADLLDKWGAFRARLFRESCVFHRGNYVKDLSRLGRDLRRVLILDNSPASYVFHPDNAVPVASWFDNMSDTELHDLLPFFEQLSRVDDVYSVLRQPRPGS

[12] = target: T5, Estrogen receptor beta
[13] = test system: Streptococcus; assay: Group A Streptococcus viability loss, dose response, counter-screen for streptokinase expression inhibitor project, luminescence, BacTiterGlo (AID 1915); format: functional, organism-based;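 note: potency for reduction of bacterial viability or growth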
[14] = test system: Streptococcus sp. 'group A'; assay: growth inhibition of control SK(-) GAS strain, dose response, counter-screen for streptokinase expression inhibitor project, luminescence, kanamycin, BacTiterGlo, confirmation (AID 1900); format: functional, organism-based
[15] = target: T7, Streptokinase A (Streptococcus pyogenes serotype M1, UniProt P10520); assay: S. pyogenes streptokinase expression inhibitors, potency, dose response, plasminogen activation absorbance, OD405 (AID 1914); format: functional, Streptococcus pyogenes M1 GAS;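 note: secreted streptokinase activity via plasminogen activation per viability signal from cell pellet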
T7 sequence (P10520 whole entry): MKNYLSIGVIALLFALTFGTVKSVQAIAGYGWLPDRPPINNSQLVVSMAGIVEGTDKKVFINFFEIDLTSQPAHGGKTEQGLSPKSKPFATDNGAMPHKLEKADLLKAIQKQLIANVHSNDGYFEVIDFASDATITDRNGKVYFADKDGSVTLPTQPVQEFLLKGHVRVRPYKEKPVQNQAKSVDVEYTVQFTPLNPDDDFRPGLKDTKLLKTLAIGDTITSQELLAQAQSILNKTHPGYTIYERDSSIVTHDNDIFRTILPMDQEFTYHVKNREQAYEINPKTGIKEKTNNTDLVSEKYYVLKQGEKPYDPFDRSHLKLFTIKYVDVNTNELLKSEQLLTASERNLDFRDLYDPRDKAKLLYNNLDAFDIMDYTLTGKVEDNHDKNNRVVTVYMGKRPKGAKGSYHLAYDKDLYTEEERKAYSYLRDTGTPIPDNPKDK

[16] = target: Induced myeloid leukemia cell differentiation protein Mcl-1 (Homo sapiens, UniProt Q07820); format: functional
Induced myeloid leukemia cell differentiation protein Mcl-1, sequence (Q07820 whole entry): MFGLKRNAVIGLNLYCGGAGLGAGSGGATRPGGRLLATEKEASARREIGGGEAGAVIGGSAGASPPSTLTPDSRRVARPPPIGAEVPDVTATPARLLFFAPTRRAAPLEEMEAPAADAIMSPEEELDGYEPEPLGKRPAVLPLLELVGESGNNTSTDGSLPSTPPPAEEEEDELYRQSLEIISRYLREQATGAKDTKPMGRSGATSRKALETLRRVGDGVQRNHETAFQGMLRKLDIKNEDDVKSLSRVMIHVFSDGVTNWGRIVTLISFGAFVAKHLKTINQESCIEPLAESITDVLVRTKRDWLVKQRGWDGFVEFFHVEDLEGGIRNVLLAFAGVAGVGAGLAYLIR

[17] = target: Prothrombin (Homo sapiens, UniProt P00734); assay: Thrombin 1536 HTS Dose Response Confirmation. [Related pubchem assays: 1046 (Thrombin 1536 HTS; hits were confirmed in this assay)]; format: functional

Which results are given for Nc1cccc2c1C(=O)N(CCOc1ccccc1F)C2=O?
EC50 [1]: > 67.6 µM (inactive); EC50 [2]: > 67.6 µM (inactive)

With CCOC(=O)c1c(NC(=O)c2cccs2)sc(C)c1CC as the compound, how does the IC50 [3] read?
Its IC50 is 30.4 µM (not active).

What does the source list for c1ccc2c(c1)OCC(c1csc3ncnc(N4CCOCC4)c13)O2 (stereo not drawn)?
AC50 [4]: 11.6 µM (active); EC50 [5]: 171 µM (active); AC50 [6]: 21.4 µM (active); AC50 [7]: 4.1 µM (active); IC50 [8]: > 100 µM (not active); AC50 [9]: 4.95 µM (active)

For O=C1c2ccccc2-c2onc3c(Oc4ccccc4)cc(O)c1c23, which IC50 [10] is on record?
The IC50 was 37 µM (not active).

Which results are given for COc1ccc2c(=O)c3c(=O)n(Cc4ccco4)c(-c4ccco4)nc3oc2c1?
IC50 [11]: 4.9 µM (active); IC50 [12]: > 50 µM (not active)

For COC(=O)c1c(NC(=O)Cc2cccs2)sc2c1CCCC2, which EC50 [13] is on record?
Its EC50 is > 150 µM (not active).

What about the IC50 [10] of the same compound?
Its IC50 is 103 µM (not active).

What about the EC50 [14] of the same compound?
Its EC50 is 20.6 µM (active).

What about the EC50 [15] of the same compound?
The EC50 was 17.7 µM (active).

And the IC50 [16]?
The IC50 was 3.35 µM (active).

What about the IC50 [12] of the same compound?
Its IC50 is 4.51 µM (active).

Which results are given for Cc1c(-c2ccccn2)c(=O)[nH]n1-c1ccc(F)cc1?
EC50 [1]: > 67.5 µM (inactive); EC50 [2]: > 67.5 µM (inactive)

Which EC50 [2] does the source give for Cc1ccc(N=C2Nc3ccccc3CS2)cc1 here?
The EC50 was > 67.5 µM (inactive).

With Cc1ccc(NC2=Nc3ccccc3CS2)cc1 as the compound, how does the EC50 [1] read?
The EC50 was > 67.5 µM (inactive).

With O=C(c1ccc([N+](=O)[O-])cc1)n1nc(-c2ccccc2)nc1NCc1ccc(F)cc1 as the compound, how does the IC50 [17] read?
The IC50 was 0.464 µM (active).
